# Legend:
# [1] = test system: E. faecalis strain ATCC 29212; test: Broth microdilution MIC, E. faecalis; format: cell-based, Enterococcus faecalis
# [2] = test system: S. aureus strain ATCC 29213; test: Broth microdilution MIC, S. aureus; format: cell-based, Staphylococcus aureus
# [3] = Enterococcus faecalis, ATCC29212, pH 5.8, E. faecalis 29212, pH 5.8
# [4] = Enterococcus faecalis, ATCC29212, pH 7, E. faecalis 29212, pH 7
# [5] = Staphylococcus aureus, ATCC29213
# [6] = Staphylococcus aureus, ATCC29213, pH 5.8
# [7] = Staphylococcus aureus, ATCC29213, pH 7
"MIC ([1]; E. faecalis 29212, folinic acid 0.1 μg/mL added)","MIC ([1]; E. faecalis 29212, pH 5.8)","MIC ([1]; E. faecalis 29212, pH 7)","MIC ([2]; S. aureus 29213, folinic acid 0.1 μg/mL added)","MIC ([2]; S. aureus 29213, pH 5.8)","MIC ([2]; S. aureus 29213, pH 7)","MIC [1, 3]","MIC [1, 4]","MIC [2, 5]","MIC [2, 6]","MIC [2, 7]","increase in MIC in acidic environment ([1]; E. faecalis, acidic pH vs pH 7)","shift (increase) in MIC with exogenous folinic acid ([1]; E. faecalis, folinic acid in media vs none)","increase in MIC in acidic environment ([2]; S. aureus, acidic pH vs pH 7)",Structure (SMILES)
2 to 4 µg/mL,1 to 2 µg/mL,1 to 2 µg/mL,1 µg/mL,1 µg/mL,1 µg/mL,,,,,,,,,CN[C@H](CC(C)C)C(=O)N[C@H]1C(=O)N[C@@H](CC(N)=O)C(=O)N[C@H]2C(=O)N[C@H]3C(=O)N[C@H](C(=O)N[C@H](C(=O)O)c4cc(O)cc(O)c4-c4cc3ccc4O)[C@H](O)c3ccc(c(Cl)c3)Oc3cc2cc(c3O[C@@H]2O[C@H](CO)[C@@H](O)[C@H](O)[C@H]2O[C@H]2C[C@](C)(N)[C@H](O)[C@H](C)O2)Oc2ccc(cc2Cl)[C@H]1O [VAN]
,,,,,,0.125 to 0.25 µg/mL,0.06 µg/mL,0.06 µg/mL,0.25 µg/mL,0.03 to 0.06 µg/mL,,,,"CCC[C@H]1c2ccccc2C=NN1C(=O)/C=C/c1cc(Cc2cnc(N)nc2N)cc(OC)c1OC (racemic) [RAB, (S,E)-3-{5-[(2,4-diaminopyrimidin-5-yl)methyl]-2,3-dimethoxyphenyl}-1-[1-propylphthalazin-2(1H)-yl]-2-propen-1-one]"
,,,,,,1 µg/mL,0.125 to 0.25 µg/mL,2 to 4 µg/mL,8 µg/mL,2 µg/mL,2–3 fold,up to 1 fold,2–3 fold,"COc1cc(Cc2cnc(N)nc2N)cc(OC)c1OC [TMP, trimethoprim]"

# Source: paper PMC3985486 (Biochemistry, 2014)
